“And” between values parts separate entries of the source, which are not always exact repeats. Equal entries are not always repeated.
System: SUM149PT spheroids with HUVEC/MSC, viability
Assay: Anticancer human tumor SUM149PT cell line growth inhibition [GQUAD];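 further: spheroids exposed to drugs for seven days before readout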;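 on viability, T/C: percent viability relative to DMSO vehicle control taken as 100%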
Conditions: for viability, T/C: stronger effect = lower value
From the text: DNA G-quadruplex Stabilizer Agents in Combinations in Complex Spheroids
A high-throughput screen of multi-cell type tumor spheroids was designed to identify active combinations of DNA G-quadruplex stabilizer agents and targeted small molecules. Complex spheroids include a stromal component modeled by human endothelial cells (HUVEC) and fibroblasts modeled by human mesenchymal stem cells (MSCs). The concentration ranges selected for each drug and investigational agent were based upon clinically achievable concentrations if the clinical Cmax of the agent was known.
Compounds. The drugs and investigational agents: pidnarulex (CX-5461; NSC782164), APTO-253 (NSC789042), BRACO-19 (NSC847499), peposertib (NSC802822), ceralasertib (NSC780249), elimusertib (NSC800525), camonsertib (NSC841442), AZD-1390 (NSC803789), olaparib (NSC753686), talazoparib (NSC767125), ART-558 (NSC835418), sotorasib (NSC818433), MRTX-1133 (NSC836407), SN-38 (NSC673596), topotecan (NSC609699), etoposide (NSC141540), doxorubicin (NSC123127), gemcitabine (NSC613327), 5-fluorouracil (NSC19893), paclitaxel (NSC125973), vemurafenib (NSC761431), panobinostat (NSC761190), R-306465 (JNJ-16241199; NSC773264), adavosertib (NSC754352), TP-3654 (NSC805149), carboplatin (NSC241240), KSQ-4279 (NSC840948), and staurosporine (NSC755774) were obtained from the National Cancer Institute (NCI) Developmental Therapeutics Program Chemical Repository (34). The FDA-approved anticancer drug set is available from the NCI Developmental Therapeutics Program. […] The stock solutions were prepared in dimethyl sulfoxide (DMSO, Sigma-Aldrich, St. Louis, MO, cat. D2650) at 800-fold the tested concentration and stored at -70 degrees C prior to their use. All drugs and investigational agents were tested over a range starting from a high concentration at or near the clinical Cmax and decreasing in half-log increments. If the clinical Cmax for an agent had not been determined, the highest concentration tested was 10 microM.
2.3 Cell Culture. All cells were maintained in an incubator at 37 degrees C and 5% CO2 with 95% humidity. The PDC lines were cultured according to standard operating procedures established by the NCI PDMR. All PDCs were thawed and cultured in Matrigel-coated flasks prepared with a working solution of 1X Ham's F-12 nutrient mix, without supplementation (Invitrogen, cat. 11765054), 100 U/mL penicillin-streptomycin (Invitrogen, cat. 15140122), and 2.5% Matrigel (Corning Inc., cat. 354248) for the first three passages. The 857933-349-R-J2-PDC line was cultured in 6C/Colon 1B media, which includes advanced DMEM/F-12 (Thermo Fisher Scientific, cat. 12634028), 10 mM HEPES (Thermo Fisher Scientific, cat. 15630080), 1X GlutaMAX supplement (Thermo Fisher Scientific, cat. 35050061), 0.1 mg/mL primocin (InvivoGen, cat. ant-pm-2), 10% defined fetal bovine serum, heat inactivated (HyClone Laboratories Inc., cat. SH30070.03HI), 50% L-WRN conditioned media (ATCC, cat. CRL-3276), 1.25 mM N-Acetyl-L-cysteine (Sigma-Aldrich, cat. A9165), 10 mM nicotinamide (Sigma-Aldrich, cat. N0636), 1X B-27 supplement (Thermo Fisher Scientific, cat. 17504044), 1X N-2 supplement (Thermo Fisher Scientific, cat. 17502048), 10 microM Y-27632 dihydrochloride (Tocris Bioscience, cat. 1254), and 50 ng/mL human EGF recombinant protein (Thermo Fisher Scientific, cat. PHG0311). The 485176-168-R4-J1-PDC line was cultured in Panc media, which includes all 6C/Colon 1B media components plus 100 ng/mL human FGF-10 (Thermo Fisher Scientific, cat. 100-26), 500 nM SB-431542 (Selleckchem, cat. S1067), and gastrin (Tocris, cat. 3006).
[…]

In the case of CCCS(=O)(=O)Nc1ccc(F)c(C(=O)c2c[nH]c3ncc(-c4ccc(Cl)cc4)cc23)c1F, the viability, T/C (compound 0.0316 µM) is reported as 107% and 95.3% and 95.8%, the viability, T/C (compound 0.1 µM) is reported as 101% and 100% and 102% and the viability, T/C (compound 0.316 µM) is reported as 101% and 97.4% and 107%. For the same molecule, the viability, T/C (compound 1 µM) was 97.1% and 102% and 107%, the viability, T/C (compound 3.16 µM) was 76% and 70.9% and 76.2% and the viability, T/C (compound 10 µM) was 54.1% and 46.8% and 37.6%. For the same molecule, the IC50 (curve of compound) was > 10000 nM and 8570 nM and 6910 nM.
Molecule CC[C@@]1(O)C(=O)OCc2c1cc1n(c2=O)Cc2cc3c(CN(C)C)c(O)ccc3nc2-1 + Cc1cnc(CNC(=O)c2c(=O)c3ccc(N4CCCN(C)CC4)nc3n3c2sc2ccccc23)cn1 has an IC50 (curve of first compound, second compound 0.0316 µM) of 26.4 nM, an IC50 (curve of first compound, second compound 0.1 µM) of 18.7 nM and an IC50 (curve of first compound, second compound 0.316 µM) of 14.7 nM. The IC50 (curve of first compound, second compound 1 µM) was under 0.999 nM, the IC50 (curve of first compound, second compound 3.16 µM) was under 0.999 nM and the IC50 (curve of first compound, second compound 10 µM) was under 0.999 nM. The viability, T/C (second compound 0.0316 µM, first compound 0.000999 µM) was 90.4%, the viability, T/C (second compound 0.0316 µM, first compound 0.00316 µM) was 71.8% and the viability, T/C (second compound 0.0316 µM, first compound 0.00999 µM) was 77.7%. For the same molecule, the viability, T/C (second compound 0.0316 µM, first compound 0.0316 µM) was 44.9%, the viability, T/C (second compound 0.0316 µM, first compound 0.0999 µM) was 36.1% and the viability, T/C (second compound 0.0316 µM, first compound 0.316 µM) was 40.4%. The viability, T/C (second compound 0.1 µM, first compound 0.000999 µM) was 60.9%, the viability, T/C (second compound 0.1 µM, first compound 0.00316 µM) was 66.8% and the viability, T/C (second compound 0.1 µM, first compound 0.00999 µM) was 56.8%. It also gave a viability, T/C (second compound 0.1 µM, first compound 0.0316 µM) of 43.5%, a viability, T/C (second compound 0.1 µM, first compound 0.0999 µM) of 44.7% and a viability, T/C (second compound 0.1 µM, first compound 0.316 µM) of 44.6%. The viability, T/C (second compound 0.316 µM, first compound 0.000999 µM) was 48.5%, the viability, T/C (second compound 0.316 µM, first compound 0.00316 µM) was 58.3% and the viability, T/C (second compound 0.316 µM, first compound 0.00999 µM) was 55.1%. It also gave a viability, T/C (second compound 0.316 µM, first compound 0.0316 µM) of 38.9%, a viability, T/C (second compound 0.316 µM, first compound 0.0999 µM) of 42% and a viability, T/C (second compound 0.316 µM, first compound 0.316 µM) of 45.1%. It also gave a viability, T/C (second compound 1 µM, first compound 0.000999 µM) of 38.5%, a viability, T/C (second compound 1 µM, first compound 0.00316 µM) of 44.6% and a viability, T/C (second compound 1 µM, first compound 0.00999 µM) of 45.5%. For the same molecule, the viability, T/C (second compound 1 µM, first compound 0.0316 µM) was 41.5%, the viability, T/C (second compound 1 µM, first compound 0.0999 µM) was 37.4% and the viability, T/C (second compound 1 µM, first compound 0.316 µM) was 39.3%. The viability, T/C (second compound 3.16 µM, first compound 0.000999 µM) was 38.5%, the viability, T/C (second compound 3.16 µM, first compound 0.00316 µM) was 38% and the viability, T/C (second compound 3.16 µM, first compound 0.00999 µM) was 40.4%. It also gave a viability, T/C (second compound 3.16 µM, first compound 0.0316 µM) of 37.1%, a viability, T/C (second compound 3.16 µM, first compound 0.0999 µM) of 36.3% and a viability, T/C (second compound 3.16 µM, first compound 0.316 µM) of 35.1%. It also gave a viability, T/C (second compound 10 µM, first compound 0.000999 µM) of 0.4%, a viability, T/C (second compound 10 µM, first compound 0.00316 µM) of 11.1% and a viability, T/C (second compound 10 µM, first compound 0.00999 µM) of 9.79%. For the same molecule, the viability, T/C (second compound 10 µM, first compound 0.0316 µM) was 11.4%, the viability, T/C (second compound 10 µM, first compound 0.0999 µM) was 2.25% and the viability, T/C (second compound 10 µM, first compound 0.316 µM) was 2.23%.
